By IC50 is commonly meant the concentration needed to halve the response being measured.

Molecules are shown by their SMILES. Read-outs that look alike come from different tables or passages of the source.

Common to all, as to format: cell-based
One test deals with BaF3_EGFRWT cells. The experiment in a line: Cell growth inhibition assay, BaF3_EGFRWT. The conditions noted are these: 80 ng/mL recombinant human EGF, 3 days treatment, CellTiterGlo 2.0, read-out: EGFR WT IC50 (nM), cell growth inhibition.
In the next test the test system is BaF3_HER2YVMA cells. The experiment in a line: Cell growth inhibition assay, BaF3_HER2YVMA. The note with it: BaF3_HER2YVMA cells, 3 days treatment, CellTiterGlo 2.0, read-out: HER2-YVMA IC50 (nM), cell growth inhibition. A general note: ATP-based viability assays read luminescence as a measure of living cells.
The next test has as its system BaF3_HER2WT cells. Kind of test: Cell growth inhibition assay, BaF3_HER2WT. The note with it: 3 days treatment, CellTiterGlo 2.0, read-out: HER2 WT IC50 (nM), cell growth inhibition.

As to `Cc1cc(Nc2ncnn3ccc(C4CC5CCC(C4)N5C(=O)/C=C/CN(C)C)c23)ccc1Oc1ccn2ncnc2c1` (single isomer, unassigned) [Examples 122 and 123, first eluting isomer, (E)-1-(-3-(4-((4-([1,2,4]triazolo[1,5-a]pyridin-7-yloxy)-3-methylphenyl)amino)pyrrolo[2,1-f][1,2,4]triazin-5-yl)-8-azabicyclo[3.2.1]octan-8-yl)-4-(dimethylamino)but-2-en-1-one], the results for the concentration for half-maximal inhibition (IC50) in the test on BaF3_EGFRWT cells, in the test on BaF3_HER2YVMA cells (72 h) and in the test with BaF3_HER2WT cells (72 h) were 500 to 1500 nM, less than 200 nM and less than 200 nM, respectively.
For `CNC/C=C/C(=O)N1CC(c2ccn3ncnc(Nc4ccc(Oc5ccc6c(c5)ncn6C)c(C)c4)c23)C1` [Example 153, (E)-1-(3-(4-((3-methyl-4-((1-methyl-1H-benzo[d]imidazol-5-yl)oxy)phenyl)amino)pyrrolo[2,1-f][1,2,4]triazin-5-yl)azetidin-1-yl)-4-(methylamino)but-2-en-1-one], the IC50 in the test with BaF3_EGFRWT cells (72 h), in the test with BaF3_HER2YVMA cells (72 h) and with BaF3_HER2WT cells (72 h) was 1500 to 5000 nM each time.
In the case of `C=C(CN(C)C)C(=O)N1CCCC(c2ccn3ncnc(Nc4ccc(Oc5ccn6ncnc6c5)c(C)c4)c23)CC1` (single isomer, unassigned) [Examples 143 and 144, first eluting isomer, 1-(4-(4-((4-([1,2,4]triazolo[1,5-a]pyridin-7-yloxy)-3-methylphenyl)amino)pyrrolo[2,1-f][1,2,4]triazin-5-yl)azepan-1-yl)-2-((dimethylamino)methyl)prop-2-en-1-one], the results for the IC50 in the test on BaF3_EGFRWT cells (72 h), in the test on BaF3_HER2YVMA cells and in the test with BaF3_HER2WT cells (72 h) were 1500 to 5000 nM, 500 to 1500 nM and less than 200 nM, respectively.
On to `C=CC(=O)N1CC2CCC(C1)N2c1ccn2ncnc(Nc3ccc(Oc4ccn5ncnc5c4)c(C)c3)c12` [Example 44, 1-(8-(4-((4-([1,2,4]triazolo[1,5-a]pyridin-7-yloxy)-3-methylphenyl)amino)pyrrolo[2,1-f][1,2,4]triazin-5-yl)-3,8-diazabicyclo[3.2.1]octan-3-yl)prop-2-en-1-one], for which the IC50 is 1500 to 5000 nM in the test on BaF3_EGFRWT cells (72 h), less than 200 nM in the test with BaF3_HER2YVMA cells (72 h) and less than 200 nM in the test on BaF3_HER2WT cells (72 h).
Turning to `Cc1cc(Nc2ncnn3cc(F)c(C4CCN(C(=O)/C=C/CN(C)C)CC4)c23)ccc1Oc1ccn2ncnc2c1` [Example 152, (E)-1-(4-(4-((4-([1,2,4]triazolo[1,5-a]pyridin-7-yloxy)-3-methylphenyl)amino)-6-fluoropyrrolo[2,1-f][1,2,4]triazin-5-yl)piperidin-1-yl)-4-(dimethylamino)but-2-en-1-one], the values for the half-inhibitory concentration (IC50) with BaF3_EGFRWT cells (72 h), with BaF3_HER2YVMA cells (72 h) and in the test on BaF3_HER2WT cells (72 h) were 1500 to 5000 nM, less than 200 nM and less than 200 nM, respectively.
Take `C=C(CN(C)C)C(=O)N1CC2CCC1CC2c1ccn2ncnc(Nc3ccc(Oc4ccn5ncnc5c4)c(C)c3)c12` (single isomer, unassigned) [Examples 135 and 136, first eluting isomer, 1-(5-(4-((4-([1,2,4]triazolo[1,5-a]pyridin-7-yloxy)-3-methylphenyl)amino)pyrrolo[2,1-f][1,2,4]triazin-5-yl)-2-azabicyclo[2.2.2]octan-2-yl)-2-((dimethylamino)methyl)prop-2-en-1-one]: the results for the IC50 in the test on BaF3_EGFRWT cells, in the test on BaF3_HER2YVMA cells (72 h) and in the test with BaF3_HER2WT cells (72 h) were 1500 to 5000 nM, less than 200 nM and less than 200 nM, respectively.
Consider `C=CC(=O)N1CC(c2ccn3ncnc(Nc4ccc(Oc5ccn6ncnc6c5)c(C)c4)c23)C1` [Example 3, 1-(3-(4-((4-([1,2,4]triazolo[1,5-a]pyridin-7-yloxy)-3-methylphenyl)amino)pyrrolo[2,1-f][1,2,4]triazin-5-yl)azetidin-1-yl)prop-2-en-1-one], for which the IC50 was 500 to 1500 nM in the test on BaF3_EGFRWT cells (72 h), less than 200 nM with BaF3_HER2YVMA cells (72 h) and less than 200 nM in the test with BaF3_HER2WT cells (72 h).
With `C=CC(=O)N(C)C1CCN(c2ccn3ncnc(Nc4ccc(Oc5ccn6ncnc6c5)c(C)c4)c23)CC1` [Example 74, N-(1-(4-((4-([1,2,4]triazolo[1,5-a]pyridin-7-yloxy)-3-methylphenyl)amino)pyrrolo[2,1-f][1,2,4]triazin-5-yl)piperidin-4-yl)-N-methylacrylamide], the figures for the half-maximal inhibitory concentration (IC50) in the test with BaF3_EGFRWT cells (72 h), in the test on BaF3_HER2YVMA cells (72 h) and in the test with BaF3_HER2WT cells (72 h) were 1500 to 5000 nM, 500 to 1500 nM and less than 200 nM, respectively.
On to `Cc1cc(Nc2ncnn3ccc(C4CN(C(=O)/C=C/CN5CCC(F)(F)CC5)C4)c23)ccc1Oc1ccn2ncnc2c1` [Example 85, (E)-1-(3-(4-((4-([1,2,4]triazolo[1,5-a]pyridin-7-yloxy)-3-methylphenyl)amino)pyrrolo[2,1-f][1,2,4]triazin-5-yl)azetidin-1-yl)-4-(4,4-difluoropiperidin-1-yl)but-2-en-1-one], for which the IC50 was 1500 to 5000 nM in the test with BaF3_EGFRWT cells (72 h), less than 200 nM in the test on BaF3_HER2YVMA cells (72 h) and less than 200 nM with BaF3_HER2WT cells (72 h).
Regarding `Cc1cc(Nc2ncnn3ccc(C4CN(C(=O)/C=C/CN(C)C)C4)c23)ccc1Oc1ccn2ccnc2c1` [Example 157, (E)-4-(dimethylamino)-1-(3-(4-((4-(imidazo[1,2-a]pyridin-7-yloxy)-3-methylphenyl)amino)pyrrolo [2,1-f][1,2,4]triazin-5-yl)azetidin-1-yl)but-2-en-1-one], the half-maximal inhibitory concentration (IC50) with BaF3_EGFRWT cells (72 h) was 1500 to 5000 nM; in the test on BaF3_HER2YVMA cells (72 h), less than 200 nM; in the test on BaF3_HER2WT cells (72 h), less than 200 nM.
In the case of `Cc1cc(Nc2ncnn3ccc(C4CN(C(=O)/C=C/CN5CC(F)C5)C4)c23)ccc1Oc1ccn2ncnc2c1` [Example 38, (E)-1-(3-(4-((4-([1,2,4]triazolo[1,5-a]pyridin-7-yloxy)-3-methylphenyl)amino)pyrrolo[2,1-f][1,2,4]triazin-5-yl)azetidin-1-yl)-4-(3-fluoroazetidin-1-yl)but-2-en-1-one], the IC50 in the test with BaF3_EGFRWT cells (72 h) was 1500 to 5000 nM; in the test on BaF3_HER2YVMA cells (72 h), less than 200 nM; in the test on BaF3_HER2WT cells (72 h) it was less than 200 nM.
Take `C=CC(=O)N1CC2CCC1CC2c1ccn2ncnc(Nc3ccc(Oc4ccn5ncnc5c4)c(C)c3)c12` (single isomer, unassigned) [Examples 139 and 140, first eluting isomer, 1-(5-(4-((4-([1,2,4]triazolo[1,5-a]pyridin-7-yloxy)-3-methylphenyl)amino)pyrrolo[2,1-f][1,2,4]triazin-5-yl)-2-azabicyclo[2.2.2]octan-2-yl)prop-2-en-1-one]: the IC50 with BaF3_EGFRWT cells (72 h) was 1500 to 5000 nM; in the test with BaF3_HER2YVMA cells, less than 200 nM; with BaF3_HER2WT cells, less than 200 nM.
With `CO[C@H]1CN(C/C=C/C(=O)N2CC(c3ccn4ncnc(Nc5ccc(Oc6ccc7c(c6)ncn7C)c(C)c5)c34)C2)C[C@H]1OC` [Example 165, (E)-4-((3R,4S)-3,4-dimethoxypyrrolidin-1-yl)-1-(3-(4-((3-methyl-4-((1-methyl-1H-benzo[d]imidazol-5-yl)oxy)phenyl)amino)pyrrolo[2,1-f][1,2,4]triazin-5-yl)azetidin-1-yl)but-2-en-1-one], the 50% inhibitory concentration (IC50) is 1500 to 5000 nM in the test with BaF3_EGFRWT cells (72 h), less than 200 nM in the test on BaF3_HER2YVMA cells (72 h) and less than 200 nM with BaF3_HER2WT cells (72 h).
As for `C=C(CN(C)C)C(=O)N1CC2CCC(C1)N2c1ccn2ncnc(Nc3ccc(Oc4ccn5ncnc5c4)c(C)c3)c12` [Example 49, 1-(8-(4-((4-([1,2,4]triazolo[1,5-a]pyridin-7-yloxy)-3-methylphenyl)amino)pyrrolo[2,1-f][1,2,4]triazin-5-yl)-3,8-diazabicyclo[3.2.1]octan-3-yl)-2-((dimethylamino)methyl)prop-2-en-1-one acetate], the results for the IC50 with BaF3_EGFRWT cells (72 h), with BaF3_HER2YVMA cells (72 h) and with BaF3_HER2WT cells (72 h) were 1500 to 5000 nM, less than 200 nM and less than 200 nM, respectively.
Regarding `C=CC(=O)N1C2CCC1CC(c1ccn3ncnc(Nc4ccc(Oc5ccn6ncnc6c5)c(C)c4)c13)C2` (single isomer, unassigned) [Examples 124 and 125, first eluting isomer, 1-(3-(4-((4-([1,2,4]triazolo[1,5-a]pyridin-7-yloxy)-3-methylphenyl)amino)pyrrolo[2,1-f][1,2,4]triazin-5-yl)-8-azabicyclo[3.2.1]octan-8-yl)prop-2-en-1-one], the IC50 with BaF3_EGFRWT cells (72 h), in the test with BaF3_HER2YVMA cells (72 h) and with BaF3_HER2WT cells (72 h) was less than 200 nM in each case.
As for `Cc1cc(Nc2ncnn3ccc(C4(O)CN(C(=O)/C=C/CN(C)C)C4)c23)ccc1Oc1ccn2ncnc2c1` [Example 51, (E)-1-(3-(4-((4-([1,2,4]triazolo[1,5-a]pyridin-7-yloxy)-3-methylphenyl)amino)pyrrolo[2,1-f][1,2,4]triazin-5-yl)-3-hydroxyazetidin-1-yl)-4-(dimethylamino)but-2-en-1-one], the IC50 was 1500 to 5000 nM in the test with BaF3_EGFRWT cells (72 h), less than 200 nM in the test with BaF3_HER2YVMA cells (72 h) and less than 200 nM in the test with BaF3_HER2WT cells (72 h).
In the case of `Cc1cc(Nc2ncnn3cnc(C4CCN(C(=O)/C=C/CN(C)C)CC4)c23)ccc1Oc1ccn2ncnc2c1` [Example 88, (E)-1-(4-(4-((4-([1,2,4]triazolo[1,5-a]pyridin-7-yloxy)-3-methylphenyl)amino)imidazo[5,1-f][1,2,4]triazin-5-yl)piperidin-1-yl)-4-(dimethylamino)but-2-en-1-one], the concentration for half-maximal inhibition (IC50) fell in the range of 1500 to 5000 nM with BaF3_EGFRWT cells (72 h), 1500 to 5000 nM with BaF3_HER2YVMA cells (72 h) and 500 to 1500 nM in the test on BaF3_HER2WT cells (72 h).
Consider `CO[C@@H]1CN(C/C=C/C(=O)N2CCC(c3ccn4ncnc(Nc5ccc(Oc6ccn7ncnc7c6)c(C)c5)c34)CC2)C[C@H]1OC` [Example 170, (E)-1-(4-(4-((4-([1,2,4]triazolo[1,5-a]pyridin-7-yloxy)-3-methylphenyl)amino)pyrrolo[2,1-f][1,2,4]triazin-5-yl)piperidin-1-yl)-4-((3R,4R)-3,4-dimethoxypyrrolidin-1-yl)but-2-en-1-one], for which the IC50 is 1500 to 5000 nM with BaF3_EGFRWT cells (72 h), less than 200 nM in the test with BaF3_HER2YVMA cells (72 h) and less than 200 nM in the test on BaF3_HER2WT cells (72 h).

Source of the values: patent US20250276983A1, “COMPOUNDS AND METHODS FOR MODULATING HER2” (IAMBIC THERAPEUTICS, INC., priority 2022, published 2025).
